In patent publication US12662460B2, “Compositions for use for the inhibition of dihydroorotate dehydrogenase” (OHIO STATE INNOVATION FOUNDATION, priority 2019, dated 2026):

Experiments:
MOLM13 = experiment: MTS assay for cell growth/viability, MOLM13; assay type: cell-based; settings: Homo sapiens, MOLM-13, 96 hours
Procedure: (§1) MTS assay for cell growth/viability: Mitochondrial activity was measured to determine cell proliferation using an MTS assay ([…]). Metabolically active cells convert MTS tetrazolium salt into a purple formazan product that is soluble in tissue culture medium. The amount of formazan measured at 490 nm absorbance is proportional to the number of proliferating cells. MTS assays in AML cell lines were carried out with 20K cells plated per well in 96-well plates with Cpd3 or brequinar in a dose series ranging from 0.0001 to 10 μM. Triplicate wells were set up for each condition. At 96 hours, the MTS reagent was added and after approximately 4 hours the plates were read in a spectrophotometer.
(§2) Biological Activity. Cell proliferation assays were carried out using the MTS assay described herein using two AML cell lines (i.e., MOLM13 and OCI-AML3) with varied genetic backgrounds. The assays were carried out in a blinded fashion.

recombinant human DHODH = target: T1, recombinant human DHODH (Homo sapiens, UniProt Q02127); experiment: DHODH enzymatic assay (DCIP reduction); assay type: biochemical; settings: recombinant human enzyme, 25° C.; read-out: h-DHODH IC50
T1 construct: made in house
T1 sequence (Q02127 whole entry): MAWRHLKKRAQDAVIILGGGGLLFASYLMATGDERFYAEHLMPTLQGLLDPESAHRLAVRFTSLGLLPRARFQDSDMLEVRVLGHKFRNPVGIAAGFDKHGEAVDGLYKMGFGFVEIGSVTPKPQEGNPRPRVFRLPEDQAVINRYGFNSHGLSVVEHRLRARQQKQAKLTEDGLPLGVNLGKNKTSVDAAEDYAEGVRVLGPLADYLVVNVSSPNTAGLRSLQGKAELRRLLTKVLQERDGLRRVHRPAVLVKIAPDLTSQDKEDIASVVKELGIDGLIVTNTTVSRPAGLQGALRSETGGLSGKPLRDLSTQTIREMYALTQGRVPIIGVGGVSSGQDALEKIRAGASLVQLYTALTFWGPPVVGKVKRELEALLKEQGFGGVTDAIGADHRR
Procedure: DHODH Enzymatic Assay: DHODH activity was determined at 25° C. following the reduction of 2,6-dichloroindophenol sodium salt (DCIP) at 600 nm (ε=18 800 M^−1 cm^−1) on a spectrophotometer. The reaction medium used contained 50 mM Tris-HCl, pH 8.0, 0.1% Triton X-100, 0.1 mM LDHO, 0.025 mM CoQ1, and 0.06 mM DCIP. The reaction was started by addition of the enzyme. The inhibitory potency of the compounds was evaluated by measuring the initial velocity of the reaction either in the absence or in the presence of the compounds at the indicated concentrations. The DHODH enzyme used was the recombinant human enzyme prepared as previously described (Hëlène Munier-Lehmann, et al., J. Med. Chem. 2015, 58:860-877).

OCI-AML3 = experiment: MTS assay for cell growth/viability, OCI-AML3; assay type: cell-based; settings: Homo sapiens, OCI-AML-3, 96 hours
Procedure: as §1, §2

Row | SMILES | IC50 (MOLM13) [nM] | IC50 (recombinant human DHODH) [nM] | IC50 (OCI-AML3) [nM]
1 | CCOc1cccc(-c2ccc(-c3cc(C(=O)O)c4cc(F)ccc4n3)nn2)c1 [Cpd7, 2-(6-(3-ethoxyphenyl)pyridazin-3-yl)-6-fluoroquinoline-4-carboxylic acid] | – | 605 | > 10000
2 | CCOc1cccc(-c2cnc(-c3cc(C(=O)O)c4cc(F)ccc4n3)nc2)c1 [Cpd6, 2-(5-(3-ethoxyphenyl)pyrimidin-2-yl)-6-fluoroquinoline-4-carboxylic acid] | – | 1820 | > 10000
3 | CCOc1ccc(-c2ccc(-c3cc(C(=O)O)c4cc(F)ccc4n3)nn2)cc1 [Cpd5, 2-(6-(4-ethoxyphenyl)pyridazin-3-yl)-6-fluoroquinoline-4-carboxylic acid] | – | 4750 | > 10000

Molecules with a lower IC50 (OCI-AML3), results first:

Row | IC50 (MOLM13) [nM] | IC50 (recombinant human DHODH) [nM] | IC50 (OCI-AML3) [nM] | SMILES
4 | 5350 | 628 | 4320 | CCOc1ccc(-c2ccc(-c3cc(C(=O)O)c4cc(F)ccc4n3)cn2)cc1 [Cpd1, 2-(6-(4-ethoxyphenyl)pyridin-3-yl)-6-fluoroquinoline-4-carboxylic acid]
5 | – | 500 | 2100 | CCOc1ccc(-c2cnc(-c3cc(C(=O)O)c4cc(F)ccc4n3)cn2)cc1 [Cpd4, 2-(5-(4-ethoxyphenyl)pyrazin-2-yl)-6-fluoroquinoline-4-carboxylic acid]
6 | – | – | 3640 | CCOc1ccc(-c2cnc(-c3cc(C(=O)O)c4cc(F)ccc4n3)nc2)cc1 [Cpd3, 2-(5-(4-ethoxyphenyl)pyrimidin-2-yl)-6-fluoroquinoline-4-carboxylic acid]
7 | 571 | 317 | 709 | CCOc1ccc(-c2ccc(-c3cc(C(=O)O)c4cc(F)ccc4n3)nc2)cc1 [Cpd2, 2-(5-(4-ethoxyphenyl)pyridin-2-yl)-6-fluoroquinoline-4-carboxylic acid]
